From article PMC4865847, “Putative histidine kinase inhibitors with antibacterial effect against multi-drug resistant clinical isolates identified by in vitro and in silico screens” (Scientific Reports, 2016)
Converted amounts (≈) assume the structure as drawn. Like-named read-outs stand apart in the source and are kept apart here.

Key:
Acinetobacter baumannii = experiment: Antibacterial susceptibility testing (MIC), A. baumannii; format: cell-based; conditions: MDR clinical isolate NM8, read-out: MIC A. baumannii NM8
Description: (§1) Bacterial strains used in this study for antibacterial susceptibility testing (Table S5) were propagated using standard microbiological procedures. Minimal inhibitory concentrations (MICs) were determined following a standard double-dilution method. MICs were recorded as the lowest concentration of the compound where no visible growth was observed. After plating the dilutions around the MIC or growing them in fresh MH media, minimal bactericidal concentration (MBC) was recorded as the lowest concentration of the compound at which no colonies were formed or no growth was observed, respectively. For S. pneumoniae MICs were determined by adapting the standard double-dilution method to anaerobic conditions and of this microorganism (use of Todd Hewitt Yeast extract with 200 U/mL of catalase and continuous monitoring of growth).

Klebsiella pneumoniae = experiment: Antibacterial susceptibility testing (MIC), K. pneumoniae; format: cell-based; conditions: Klebsiella pneumoniae, ATCC700603, strain ATCC 700603
Description: as §1

S. pneumoniae WalK = biological target: T1, S. pneumoniae WalK (Streptococcus pneumoniae, UniProt Q8DPL8); experiment: In vitro autophosphorylation kinase assay with γ-32P-ATP, WalK; format: biochemical; conditions: for IC50: autophosphorylation, one time point (30 sec), 10% DMSO, read-out: IC50 WalK
T1 construct: WalK (amino acids from 208 to 449); N-terminal His6-3C site of vector pOPINF (own knowledge of the vector); made in house; host or cells: E. coli RIL
T1 sequence (Q8DPL8 208-449): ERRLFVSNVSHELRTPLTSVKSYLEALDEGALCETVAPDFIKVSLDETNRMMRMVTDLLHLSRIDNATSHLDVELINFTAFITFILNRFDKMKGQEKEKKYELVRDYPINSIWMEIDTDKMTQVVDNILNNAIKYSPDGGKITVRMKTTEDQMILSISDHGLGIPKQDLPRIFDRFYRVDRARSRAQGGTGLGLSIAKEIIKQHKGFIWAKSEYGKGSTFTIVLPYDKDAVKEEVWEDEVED
Description: (§2) To evaluate the inhibitory capacity of selected hits from DSF, SBVS and LBSS in vitro autophosphorylation kinase assays with γ-^32P-ATP were performed as previously described. Ligands were dissolved in 100% DMSO. […] Controls lacking ligands contained an equal concentration of DMSO. Inhibition of autophosphorylation was determined by incubating 0.12 mg/ml (≈4 μM) HK and up to 20 mM fragment in kinase buffer (50 mM Tris HCl, pH 8.5, 50 mM KCl, 5 mM MgCl2, 0.5 mM EDTA and 0.1 mM DTT). Autophosporylation reactions were initiated by addition of 0.1 μCi/μl γ-^32P-ATP containing from 0.03 to 0.06 μM ATP (final concentrations). Autophosphorylation was quenched with 2xSDS-PAGE sample buffer supplemented with 50 mM EDTA. […] After electrophoresis, the bottoms of the gels were removed to lower the background from the unincorporated radiolabeled ATP. Gels were dried without staining on a Bio-Rad Gel Air drying system and the phosphorylated protein was quantified by phosphor-imaging. Prism GraphPad was used for curve fitting and statistical analysis.

[1] = tested on: Stenotrophomonas maltophilia; experiment: Antibacterial susceptibility testing (MIC), S. maltophilia; format: cell-based; conditions: clinical isolate B32/1, read-out: MIC S. maltophilia B32/1
Description: as §1

[2] = tested on: Staphylococcus epidermidis; experiment: Antibacterial susceptibility testing (MIC/MBC), S. epidermidis; format: cell-based; conditions: for MBC / MIC: Staphylococcus epidermidis
Description: (§3) Minimal inhibitory concentrations (MICs) were determined following a standard double-dilution method. […] For S. pneumoniae MICs were determined by adapting the standard double-dilution method to anaerobic conditions and of this microorganism (use of Todd Hewitt Yeast extract with 200 U/mL of catalase and continuous monitoring of growth).

Hemolysis assay = format: cell-based; conditions: human
Description: Hemolytic activity against human erythrocytes taken from a healthy donor was measured as previously described. The hemolysis experiments were carried out in accordance with the guidelines of the United Arab Emirates University (UAEU) Research Ethics Review Board. All experimental protocols were approved by the Research Ethics Review Board of UAEU and informed consent was obtained from all donors.

Escherichia coli = experiment: Antibacterial susceptibility testing (MIC/MBC), E. coli; format: cell-based; conditions: Escherichia coli
Description: as §3

Pseudomonas aeruginosa = experiment: Antibacterial susceptibility testing (MIC), P. aeruginosa; format: cell-based; conditions: Pseudomonas aeruginosa, ATCC27853; strain ATCC 27853
Description: as §1

Staphylococcus aureus = experiment: Antibacterial susceptibility testing (MIC/MBC), S. aureus; format: cell-based; conditions: for MIC / MBC: Staphylococcus aureus; for MBC: read-out: MBC S. aureus DSM 20231
Description: as §3

Streptococcus pneumoniae = experiment: Antibacterial susceptibility testing (MIC), S. pneumoniae; format: cell-based; conditions: strain 49619
Description: as §1

Streptococcus suis = experiment: Antibacterial susceptibility testing (MIC), S. suis; format: cell-based; conditions: for MIC: Streptococcus suis, read-out: MIC Streptococcus suis 3881/S10, strain 3881/S10
Description: as §1

E. coli PhoR (PhoR^E) = biological target: T2, E. coli PhoR (PhoR^E) (Escherichia coli, UniProt P08400); experiment: In vitro autophosphorylation kinase assay with γ-32P-ATP, PhoR^E; format: biochemical; conditions: for IC50: autophosphorylation, one time point (30 sec), 10% DMSO, read-out: IC50 PhoR^E
T2 construct: The catalytic portion (DHp and CA domain) of E. coli PhoR (PhoR^E); made in house; host or cells: E. coli RIL
T2 sequence (P08400 210-425): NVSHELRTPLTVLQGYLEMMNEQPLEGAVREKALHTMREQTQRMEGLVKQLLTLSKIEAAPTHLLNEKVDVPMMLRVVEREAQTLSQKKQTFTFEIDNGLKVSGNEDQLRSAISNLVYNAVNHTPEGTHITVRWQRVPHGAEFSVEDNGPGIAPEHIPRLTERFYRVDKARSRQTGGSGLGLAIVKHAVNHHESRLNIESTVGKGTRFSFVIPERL
Description: as §2

[3] = Solubility in kinase buffer; format: physicochemical; conditions: kinase buffer in the presence of 10% DMSO
[4] = 2 mM, 30 sec, compared to negative control
[5] = clinical isolate T7/3, read-out: MIC S. epidermidis T7/3
[6] = clinical isolate T37/8, read-out: MIC S. epidermidis T37/8
[7] = clinical isolate T6119, read-out: MIC S. epidermidis T6119
[8] = strain RP62A (biofilm producer), read-out: MIC S. epidermidis RP62A
[9] = strain RP62A/1 (non-biofilm producer), read-out: MIC S. epidermidis RP62A/1
[10] = ATCC25276, strain ATCC 25276, read-out: MIC E. coli ATCC 25276
[11] = ATCC reference strain 25293, read-out: MIC S. aureus 25293
[12] = MRSA clinical isolate 127/08, read-out: MIC S. aureus 127/08
[13] = MRSA clinical isolate 145/08, read-out: MIC S. aureus 145/08
[14] = MRSA clinical isolate 274/08, read-out: MIC S. aureus 274/08
[15] = MRSA, MRSA clinical isolate T4/6, read-out: MIC S. aureus T4/6
[16] = MRSA, MRSA clinical isolate V4180, read-out: MIC S. aureus V4180
[17] = MRSA, summary over strains, read-out: MICs for the MRSA strains and S. aureus 25293

| SMILES | MIC (Acinetobacter baumannii) [µg/mL] | MIC (Klebsiella pneumoniae) [µg/mL] | IC50 (S. pneumoniae WalK) [µM] | MIC [1] [µg/mL] | MBC ([2]; DSM20044, strain DSM 20044) [µg/mL] | MIC [2, 5] [µg/mL] | MIC [2, 6] [µg/mL] | MIC [2, 7] [µg/mL] | MIC [2, 8] [µg/mL] | MIC [2, 9] [µg/mL] | HC50 (Hemolysis assay) [µg/mL] | MIC (Escherichia coli; [10]) [µg/mL] | MIC (Pseudomonas aeruginosa) [µg/mL] | MIC (Staphylococcus aureus; [11]) [µg/mL] | MBC (Staphylococcus aureus; DSM20231, strain DSM 20231) [µg/mL] | MIC (Staphylococcus aureus; [12]) [µg/mL] | MIC (Staphylococcus aureus; [13]) [µg/mL] | MIC (Staphylococcus aureus; [14]) [µg/mL] | MIC (Staphylococcus aureus; [15]) [µg/mL] | MIC (Staphylococcus aureus; [16]) [µg/mL] | also measured |
| --- | --- | --- | --- | --- | --- | --- | --- | --- | --- | --- | --- | --- | --- | --- | --- | --- | --- | --- | --- | --- | --- |
| Nc1nc(-c2ccccc2Cl)cs1 [F1.6] | > 500 | > 500 | < 2000 | > 500 | 500 (≈ 2370 µM) | 125 (≈ 593 µM) | > 500 | > 500 | > 500 | > 500 | > 500 | > 500 | > 500 | 250 (≈ 1190 µM) | 250 (≈ 1190 µM) | 250 (≈ 1190 µM) | 250 (≈ 1190 µM) | 500 (≈ 2370 µM) | 250 (≈ 1190 µM) | > 500 | inhibition at 2000 µM (S. pneumoniae WalK; [4]): > 50%; MIC ([2]; summary over clinical isolates, read-out: MICs for S. epidermidis clinical isolates): 125 µg/mL (≈ 593 µM); MIC (Escherichia coli; strain CFT 073, read-out: MIC E. coli CFT 073): > 500 µg/mL; MIC (Staphylococcus aureus; MRSA, MRSA clinical isolate S908, read-out: MIC S. aureus S908): 500 µg/mL (≈ 2370 µM); MIC (Staphylococcus aureus; [17]): 125 to 500 µg/mL (≈ 593 to 2370 µM); MIC (Streptococcus pneumoniae): 256 µg/mL (≈ 1220 µM); MIC (Streptococcus suis): > 500 µg/mL; IC50 (E. coli PhoR (PhoR^E)): > 2000 µM |
| Oc1cccc2[nH]c3ccccc3c12 [F2.8] | > 500 | 250 (≈ 1360 µM) | > 2000 | > 500 | 250 (≈ 1360 µM) | 63 (≈ 344 µM) | 250 (≈ 1360 µM) | 250 (≈ 1360 µM) | 250 (≈ 1360 µM) | 250 (≈ 1360 µM) | > 500 | 500 (≈ 2730 µM) | > 500 | 250 (≈ 1360 µM) | 63 (≈ 344 µM) | 250 (≈ 1360 µM) | 250 (≈ 1360 µM) | 250 (≈ 1360 µM) | 250 (≈ 1360 µM) | 250 (≈ 1360 µM) | solubility in kinase buffer [3]: good solubility; MIC ([2]; DSM20044, strain DSM 20044, read-out: MIC S. epidermidis DSM 20044): 31 to 500 µg/mL (≈ 169 to 2730 µM); MIC ([2]; summary over strains, read-out: MICs for the S. epidermidis strains): 31 to 250 µg/mL (≈ 169 to 1360 µM); MIC S. epidermidis DSM 20044 ([2]; strain DSM 20044): 31 µg/mL (≈ 169 µM); MBC (Escherichia coli; strain CFT 073, read-out: MBC E. coli CFT 073): 500 µg/mL (≈ 2730 µM); MIC (Escherichia coli; summary over E. coli strains, read-out: antibacterial effects (MIC) against E. coli): ≥ 63 µg/mL; MIC (Staphylococcus aureus; DSM20231, strain DSM 20231, read-out: MIC S. aureus DSM 20231): 31 to 250 µg/mL (≈ 169 to 1360 µM); MIC (Staphylococcus aureus; [17]): 125 to 500 µg/mL (≈ 682 to 2730 µM); MIC S. aureus DSM 20231 (Staphylococcus aureus; strain DSM 20231): 31 µg/mL (≈ 169 µM); MIC (Streptococcus suis): 250 µg/mL (≈ 1360 µM); MIC Streptococcus suis 3881/S10 (Streptococcus suis; strain 3881/S10): 125 µg/mL (≈ 682 µM); inhibition at 2000 µM (E. coli PhoR (PhoR^E); [4]): > 50%; IC50 (E. coli PhoR (PhoR^E)): 720 µM |
